For assay [1], the target named is human FcγRIII (CD16a) (Homo sapiens, UniProt P08637). Briefly: FcγRIII (CD16a) SPR (Method A). In kind it is binding. Here is the method: SPR experiments were performed to determine ka (M^−1s^−1), kd (s^−1), KD (nM) values (where measurable) of various bicyclic peptides to immobilized human FcγRIII proteins.
For analysis of peptide binding, a Biacore 3000 or T200 instrument was used with a CM5 chip (GE Healthcare). Streptavidin was immobilized on the chip using standard amine-coupling chemistry at 25° C. with HBS-N (10 mM HEPES, 0.15 M NaCl, pH 7.4) as the running buffer. Briefly, the carboxymethyl dextran surface was activated with a 7 min injection of a 1:1 ratio of 0.4 M 1-ethyl-3-(3-dimethylaminopropyl) carbodiimide hydrochloride (EDC)/0.1 M N-hydroxy succinimide (NHS) at a flow rate of 10 μl/min. For capture of streptavidin, the protein was diluted to 0.2 mg/ml in 10 mM sodium acetate (pH 4.5) and captured by injecting 120 μl of onto the activated chip surface. Residual activated groups were blocked with a 7 min injection of 1 M ethanolamine (pH 8.5) and biotinylated FcγRIII captured to a level of 400-1,400 RU. Buffer was changed to PBS/0.05% Tween 20 and a dilution series of the peptides was prepared in this buffer with a final DMSO concentration of 0.5%. […] The SPR analysis was run at 25° C. at a flow rate of 50 μl/min with 60 seconds association and dissociation between 60 and 200 seconds. Data were corrected for DMSO excluded volume effects. […]

Assay [2] concerns human CD16a V176 variant. Briefly: IgG competition assay (AlphaScreen), V variant. The settings on record: N-terminally biotinylated CD16a V176 10 nM, mouse IgG2a acceptor beads. In kind it is binding.
Assay [3] has as its system CD56+ (NK cells) from human PBMCs. Nature of the assay: Flow cytometry binding to PBMCs, CD56+ (NK cell) population. In kind it is cell-based. The following applies: FIG. 2A. On the procedure:
(§1) The affinity of NKp46 dimeric bicyclic peptides conjugated to Alexa Fluor® 488 to primary healthy peripheral blood mononuclear cells (PBMCs) was evaluated using a flow cytometry assay.
(§2) On the day of the experiment, medium was prepared by supplementing RPMI-1640 (Gibco™ 11875-093; with L-glutamine) with 10% heat-inactivated fetal bovine serum (FBS; Corning® 35-011-CV), 10 mM HEPES (Gibco™ 15-630-080), and 1% Penicillin Streptomycin (Corning™ 30-002-Cl), herein referred to as working medium. Previously isolated human peripheral blood mononuclear cells (PBMCs), from whole blood, were quick thawed in a water bath and washed once at 500 rpm for 5 minutes in 10 mL of prewarmed working medium. […]
(§3) Preparation of samples for flow cytometry: Zombie Aqua™ Fixable Viability Dye (BioLegend® 423102) was prepared as a 1:1000 dilution in PBS and 100 μL of viability dye was added to each well and incubated in the dark at 4° C. for 30 minutes. […] Cells were resuspended in 200 μL of stain buffer and kept at 4° C. in the dark until read by BD FACSCelesta™ flow cytometer.
(§4) Flow cytometry results were analyzed in FlowJo™ software with a gating strategy to evaluate the lymphocyte population then exclude debris, gate on single and live cells only, and determining the geometric mean of the Alexa Fluor® 488 in the CD3+ and CD3−/CD56+ populations. […]
Background: Flow cytometry measures light scatter and fluorescence of single cells or particles in a stream.

Assay [4] concerns CD56- CD3+ (T-cell population) from human PBMCs. Briefly: Flow cytometry binding to PBMCs, CD56-/CD3+ (T-cell) population. The assay is classed as cell-based. The following applies: FIG. 2B. Here is the method:
as §1, §2, §3, §4

human FcγRIII (CD16a), sequence (P08637 17-254): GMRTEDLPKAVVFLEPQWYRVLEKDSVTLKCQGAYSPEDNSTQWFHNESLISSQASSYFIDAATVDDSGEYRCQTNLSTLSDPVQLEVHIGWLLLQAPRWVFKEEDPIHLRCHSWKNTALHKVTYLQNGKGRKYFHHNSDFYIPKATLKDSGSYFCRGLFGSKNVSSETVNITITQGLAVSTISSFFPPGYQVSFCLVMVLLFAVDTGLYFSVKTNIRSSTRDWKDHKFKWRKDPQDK

As usually defined, the Kd is a measure of binding affinity in units of concentration. Broadly, the IC50 is the concentration that inhibits the measured activity by half. As for `C#CCCC(=O)NCCCC[C@H](NC(=O)[C@H](C)NC(=O)[C@@H]1CSCc2nc3nc(n2)CSC[C@H](NC(=O)[C@@H]2CCCN2C(=O)CNC(=O)[C@H](CC(C)C)NC(=O)[C@H](CCC(=O)O)NC(=O)[C@H](CCC(=O)O)NC(=O)[C@H](CC(C)C)NC(=O)CNC(=O)[C@H](C(C)C)NC(=O)[C@@H](NC(=O)[C@H](C)N)CSC3)C(=O)N[C@@H](CO)C(=O)N[C@@H](CC(=O)O)C(=O)N[C@@H](CC(C)C)C(=O)N1)C(N)=O` [BCY13886, A-(SEQ ID NO: 62)-A-[K(PYA)]], binding in assay [1] was put at a Kd of 2200 nM. Moreover, the concentration for half-maximal inhibition (IC50) in assay [2] was determined as 3190 nM.
As for “BCY15663: AF488 NKp46 homodimer of BCY15452, C-term D-Lys(PYA), linker N-(amine-PEG2)-N-bis(PEG3-azide) (ACYLPDYLCGDEYCAK; not fully specified; D-residues)”, the “binding to CD56+ (NK cell) population of PBMCs (in words)” value in assay [3] is recorded as “dose-dependent binding”. Further, the “binding to CD56-/CD3+ (T-cell) population of PBMCs (in words)” value in assay [4] is reported as “binding to NK cells only”.

These data come from patent US20240108738A1, “BICYCLIC PEPTIDE LIGANDS SPECIFIC FOR NK CELLS” (Bicycle Tx Limited, priority 2021, published 2024).
